Results on 2 compounds are retold here after ChEMBL document CHEMBL1681705, “Optimisation of ITK inhibitors through successive iterative design cycles” (Bioorg Med Chem Lett, 2011).

For experiment [1], the target named is Insulin-like growth factor 1 receptor (Homo sapiens) (UniProt P08069). Kind of experiment: Inhibition of IGF1R at 0.1 uM; values are per cent of control.
For experiment [2], the target named is T1, cGMP-dependent protein kinase 1 (Homo sapiens) (UniProt Q13976).
T1 sequence (whole entry): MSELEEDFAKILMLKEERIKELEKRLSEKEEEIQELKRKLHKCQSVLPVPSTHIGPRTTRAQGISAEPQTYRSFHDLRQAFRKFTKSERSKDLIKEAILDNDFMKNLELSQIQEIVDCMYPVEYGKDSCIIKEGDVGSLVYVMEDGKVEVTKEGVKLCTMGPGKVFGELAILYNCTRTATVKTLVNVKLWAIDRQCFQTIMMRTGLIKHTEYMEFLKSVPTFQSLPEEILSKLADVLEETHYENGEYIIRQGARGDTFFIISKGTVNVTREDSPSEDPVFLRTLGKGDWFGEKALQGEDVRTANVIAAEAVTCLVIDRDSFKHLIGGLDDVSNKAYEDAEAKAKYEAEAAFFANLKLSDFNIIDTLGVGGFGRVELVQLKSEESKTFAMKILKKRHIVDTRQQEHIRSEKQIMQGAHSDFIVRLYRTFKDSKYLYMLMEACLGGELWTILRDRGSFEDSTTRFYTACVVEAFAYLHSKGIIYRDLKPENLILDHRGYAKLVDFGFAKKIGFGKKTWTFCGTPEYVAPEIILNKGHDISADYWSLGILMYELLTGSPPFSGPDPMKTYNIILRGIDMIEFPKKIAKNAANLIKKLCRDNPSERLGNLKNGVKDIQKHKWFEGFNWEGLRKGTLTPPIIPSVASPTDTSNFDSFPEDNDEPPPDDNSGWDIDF
Description: Inhibition of PKG1beta at 0.1 uM; values are per cent of control.

For experiment [3], the target named is Tyrosine-protein kinase BTK (Homo sapiens) (UniProt Q06187). Description: Inhibition of BTK at 0.1 uM; values are per cent of control.
Experiment [4] concerns the target Ribosomal protein S6 kinase alpha-1 (Homo sapiens) (UniProt Q15418). Description: Inhibition of Rsk1 at 0.1 uM; values are per cent of control.
For experiment [5], the target named is T2, Mitogen-activated protein kinase kinase kinase 7 (Homo sapiens) (UniProt O43318).
T2 sequence (whole entry): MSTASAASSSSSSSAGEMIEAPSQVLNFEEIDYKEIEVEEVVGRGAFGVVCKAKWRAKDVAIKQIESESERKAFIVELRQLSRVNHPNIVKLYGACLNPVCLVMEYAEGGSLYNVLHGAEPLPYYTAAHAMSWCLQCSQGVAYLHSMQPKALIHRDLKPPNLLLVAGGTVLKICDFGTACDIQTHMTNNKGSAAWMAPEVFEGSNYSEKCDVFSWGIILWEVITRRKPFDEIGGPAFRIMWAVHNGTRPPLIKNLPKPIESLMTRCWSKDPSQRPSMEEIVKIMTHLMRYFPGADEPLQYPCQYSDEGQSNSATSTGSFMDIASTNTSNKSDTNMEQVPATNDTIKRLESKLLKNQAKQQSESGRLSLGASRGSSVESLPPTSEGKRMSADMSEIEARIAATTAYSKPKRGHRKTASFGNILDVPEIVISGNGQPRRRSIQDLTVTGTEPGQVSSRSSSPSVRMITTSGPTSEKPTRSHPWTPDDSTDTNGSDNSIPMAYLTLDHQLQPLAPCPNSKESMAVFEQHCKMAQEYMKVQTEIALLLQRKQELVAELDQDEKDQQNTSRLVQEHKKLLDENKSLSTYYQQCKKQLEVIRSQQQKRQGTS
Description: Inhibition of TAK1 at 0.1 uM; values are per cent of control.

Experiment [6] can be described thus: Inhibition of PKA at 0.1 uM; values are per cent of control.
The target in experiment [7] is MAP kinase-interacting serine/threonine-protein kinase 2 (Homo sapiens) (UniProt Q9HBH9). Description: Inhibition of Mnk2 at 1 uM; values are per cent of control.
Experiment [8] has as its target Mitogen-activated protein kinase 8 (Homo sapiens) (UniProt P45983). Description: Inhibition of JNK1a1 at 0.1 uM; values are per cent of control.
Experiment [9] addresses T3, Serine/threonine-protein kinase STK11 (Homo sapiens) (UniProt Q15831).
T3 sequence (whole entry): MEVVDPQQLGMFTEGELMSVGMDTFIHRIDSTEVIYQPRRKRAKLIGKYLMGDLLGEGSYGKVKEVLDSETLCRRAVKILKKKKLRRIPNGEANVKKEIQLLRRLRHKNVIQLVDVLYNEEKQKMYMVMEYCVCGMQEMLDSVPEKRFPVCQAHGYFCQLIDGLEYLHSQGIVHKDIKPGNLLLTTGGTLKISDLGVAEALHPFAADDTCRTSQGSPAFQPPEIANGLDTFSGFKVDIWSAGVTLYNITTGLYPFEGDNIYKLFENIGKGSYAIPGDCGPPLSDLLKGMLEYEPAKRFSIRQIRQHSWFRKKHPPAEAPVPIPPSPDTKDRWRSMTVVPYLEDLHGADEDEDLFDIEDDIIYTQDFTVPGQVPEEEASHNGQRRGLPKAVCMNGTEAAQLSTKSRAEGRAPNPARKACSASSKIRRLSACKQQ
Kind of experiment: Inhibition of LKB1 at 1 uM; values are per cent of control.

Chain of Ribosomal protein S6 kinase alpha-1 (Homo sapiens) (Q15418 whole entry): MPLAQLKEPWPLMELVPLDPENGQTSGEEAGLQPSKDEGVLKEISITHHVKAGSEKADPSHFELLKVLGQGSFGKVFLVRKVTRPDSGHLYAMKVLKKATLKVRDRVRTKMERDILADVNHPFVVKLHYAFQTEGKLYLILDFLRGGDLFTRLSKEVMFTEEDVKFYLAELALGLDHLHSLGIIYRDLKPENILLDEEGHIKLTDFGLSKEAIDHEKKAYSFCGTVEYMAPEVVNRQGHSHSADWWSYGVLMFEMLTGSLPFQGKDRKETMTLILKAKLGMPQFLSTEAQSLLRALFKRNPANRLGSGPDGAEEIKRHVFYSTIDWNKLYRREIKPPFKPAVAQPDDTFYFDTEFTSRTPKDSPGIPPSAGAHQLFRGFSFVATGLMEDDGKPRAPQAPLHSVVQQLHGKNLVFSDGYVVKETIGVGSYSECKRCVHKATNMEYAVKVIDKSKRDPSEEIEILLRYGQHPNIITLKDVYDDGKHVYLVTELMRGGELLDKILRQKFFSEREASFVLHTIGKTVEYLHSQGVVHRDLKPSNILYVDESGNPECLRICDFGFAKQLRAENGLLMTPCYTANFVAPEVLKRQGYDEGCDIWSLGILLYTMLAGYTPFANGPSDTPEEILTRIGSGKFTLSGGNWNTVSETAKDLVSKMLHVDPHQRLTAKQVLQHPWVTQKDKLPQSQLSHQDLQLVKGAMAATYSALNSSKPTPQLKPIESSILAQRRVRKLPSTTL
Chain of MAP kinase-interacting serine/threonine-protein kinase 2 (Homo sapiens) (Q9HBH9 whole entry, looked up): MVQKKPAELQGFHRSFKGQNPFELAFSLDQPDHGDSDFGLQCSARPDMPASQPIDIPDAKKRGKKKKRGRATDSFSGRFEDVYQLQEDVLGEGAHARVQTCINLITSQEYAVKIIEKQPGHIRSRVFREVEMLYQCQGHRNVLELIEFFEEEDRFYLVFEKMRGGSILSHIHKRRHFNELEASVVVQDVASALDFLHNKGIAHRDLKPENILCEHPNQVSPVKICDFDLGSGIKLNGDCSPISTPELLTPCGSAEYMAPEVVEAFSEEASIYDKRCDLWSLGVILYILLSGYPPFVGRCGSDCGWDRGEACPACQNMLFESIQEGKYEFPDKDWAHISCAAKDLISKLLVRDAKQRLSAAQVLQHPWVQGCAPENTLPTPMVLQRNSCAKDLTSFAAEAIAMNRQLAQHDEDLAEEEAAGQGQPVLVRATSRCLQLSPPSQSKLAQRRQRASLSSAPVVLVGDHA
Chain of Insulin-like growth factor 1 receptor (Homo sapiens) (P08069 31-736 limits assumed): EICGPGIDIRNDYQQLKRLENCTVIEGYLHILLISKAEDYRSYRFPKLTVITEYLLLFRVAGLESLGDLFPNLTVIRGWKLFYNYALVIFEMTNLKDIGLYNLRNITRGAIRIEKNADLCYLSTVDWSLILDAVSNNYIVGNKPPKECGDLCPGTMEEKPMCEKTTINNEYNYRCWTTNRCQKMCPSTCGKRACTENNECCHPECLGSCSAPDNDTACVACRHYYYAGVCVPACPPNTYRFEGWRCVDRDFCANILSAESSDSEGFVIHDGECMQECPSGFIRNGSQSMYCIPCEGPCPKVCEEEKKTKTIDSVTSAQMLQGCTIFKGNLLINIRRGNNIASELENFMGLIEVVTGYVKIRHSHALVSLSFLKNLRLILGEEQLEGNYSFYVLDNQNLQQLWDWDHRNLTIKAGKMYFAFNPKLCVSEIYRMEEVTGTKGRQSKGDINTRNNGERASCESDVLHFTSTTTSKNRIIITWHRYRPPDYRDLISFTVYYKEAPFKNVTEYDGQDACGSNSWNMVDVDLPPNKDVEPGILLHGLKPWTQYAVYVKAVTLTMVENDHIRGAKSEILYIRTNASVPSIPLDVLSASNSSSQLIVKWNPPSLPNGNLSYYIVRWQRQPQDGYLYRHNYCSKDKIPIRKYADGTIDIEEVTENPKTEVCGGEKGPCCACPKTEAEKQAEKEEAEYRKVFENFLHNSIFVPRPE
Chain of Insulin-like growth factor 1 receptor (Homo sapiens) (P08069 741-1367 limits assumed): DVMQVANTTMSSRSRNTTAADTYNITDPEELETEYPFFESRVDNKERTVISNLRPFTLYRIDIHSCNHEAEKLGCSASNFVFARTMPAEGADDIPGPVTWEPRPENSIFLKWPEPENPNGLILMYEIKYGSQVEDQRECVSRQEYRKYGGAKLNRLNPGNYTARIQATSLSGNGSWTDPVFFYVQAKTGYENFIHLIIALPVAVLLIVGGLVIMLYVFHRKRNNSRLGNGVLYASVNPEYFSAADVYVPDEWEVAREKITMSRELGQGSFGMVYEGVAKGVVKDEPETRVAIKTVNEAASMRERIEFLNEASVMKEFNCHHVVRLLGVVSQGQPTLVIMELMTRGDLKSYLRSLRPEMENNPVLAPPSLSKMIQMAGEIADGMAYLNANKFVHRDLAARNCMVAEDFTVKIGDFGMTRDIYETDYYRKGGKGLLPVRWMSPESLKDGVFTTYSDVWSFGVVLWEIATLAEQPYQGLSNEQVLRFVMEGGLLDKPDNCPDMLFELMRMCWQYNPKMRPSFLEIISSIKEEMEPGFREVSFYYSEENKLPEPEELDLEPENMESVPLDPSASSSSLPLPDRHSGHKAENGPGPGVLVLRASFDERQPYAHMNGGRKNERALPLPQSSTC
Chain of Mitogen-activated protein kinase 8 (Homo sapiens) (P45983 whole entry): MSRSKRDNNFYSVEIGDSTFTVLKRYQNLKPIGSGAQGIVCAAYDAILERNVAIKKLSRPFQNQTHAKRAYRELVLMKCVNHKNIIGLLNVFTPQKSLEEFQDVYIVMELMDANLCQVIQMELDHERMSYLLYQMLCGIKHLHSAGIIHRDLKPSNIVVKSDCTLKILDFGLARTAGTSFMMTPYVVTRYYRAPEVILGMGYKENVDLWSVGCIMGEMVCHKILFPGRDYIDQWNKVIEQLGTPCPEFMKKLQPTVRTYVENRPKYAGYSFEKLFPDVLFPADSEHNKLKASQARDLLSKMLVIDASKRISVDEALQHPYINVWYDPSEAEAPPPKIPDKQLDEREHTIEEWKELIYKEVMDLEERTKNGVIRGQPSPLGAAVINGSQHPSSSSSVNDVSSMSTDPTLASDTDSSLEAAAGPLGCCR
Chain of Tyrosine-protein kinase BTK (Homo sapiens) (Q06187 whole entry): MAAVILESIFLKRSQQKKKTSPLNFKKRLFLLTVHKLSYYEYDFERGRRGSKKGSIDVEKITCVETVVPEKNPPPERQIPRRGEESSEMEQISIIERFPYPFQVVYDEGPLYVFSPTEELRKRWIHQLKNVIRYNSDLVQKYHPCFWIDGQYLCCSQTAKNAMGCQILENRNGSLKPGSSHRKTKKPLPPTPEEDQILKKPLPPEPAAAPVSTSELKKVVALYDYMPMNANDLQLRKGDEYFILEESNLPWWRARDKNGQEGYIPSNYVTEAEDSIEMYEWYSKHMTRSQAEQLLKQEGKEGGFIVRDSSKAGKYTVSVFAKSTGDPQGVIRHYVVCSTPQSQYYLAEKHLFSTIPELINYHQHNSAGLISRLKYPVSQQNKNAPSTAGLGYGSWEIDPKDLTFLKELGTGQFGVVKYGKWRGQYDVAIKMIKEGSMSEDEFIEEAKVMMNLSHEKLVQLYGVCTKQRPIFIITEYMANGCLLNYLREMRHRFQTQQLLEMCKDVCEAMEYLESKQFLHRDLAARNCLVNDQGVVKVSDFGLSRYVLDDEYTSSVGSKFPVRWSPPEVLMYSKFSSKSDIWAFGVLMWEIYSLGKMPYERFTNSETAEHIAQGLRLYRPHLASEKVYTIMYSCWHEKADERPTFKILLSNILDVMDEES

Take `Cc1ccc2cc(-c3n[nH]c4ccc(NC5CCNC5)cc34)[nH]c2c1` (stereo not drawn): the residual activity in experiment [1] was 98%; in [2], 95%; in experiment [3], 69%; in experiment [4] it was 6%; in experiment [5], 73%; in experiment [6] it was 42%. Besides, the residual activity is 14% in experiment [7], 101% in experiment [8] and 98% in [9].

As to `Cc1ccc2cc(-c3n[nH]c4ccc(NC5CCN(Cc6ccccc6)CC5)cc34)[nH]c2c1`, the residual activity in experiment [1] turned out to be 52%; in experiment [2], 83%; in [3], 38%; in experiment [4] it was 97%; in experiment [5] it was 84%; in experiment [6] it was 41%. Further, the values for the residual activity in [7], in [8] and in experiment [9] were 44%, 83% and 101%, respectively.
